This passage reports EC50 results from ChEMBL document CHEMBL3137547, “Open Source Malaria Deposition 2. http://malaria.ourexperiment.org”.

SMILES strings stand for the structures.

In this experiment the test system is Plasmodium falciparum. In words: OSM: Erythrocyte assay. NF54 with 3H-Hypoxanthine at 72hr time point. It is filed as functional, organism-based.
In turn, `COc1ccc2ccc(Oc3cncc4nnc(-c5ccc(OC(F)F)cc5)n34)cc2n1` yielded an EC50 of 1.67 µM.
In turn, `O=C(NC1CCc2cc(Cl)ccc21)c1cncc2nnc(-c3ccc(OC(F)F)cc3)n12` (configuration not stated) displayed an EC50 of 0.547 µM.
In turn, `Cc1nn(-c2ccc(F)cc2)c(C)c1-c1nnc2cncc(C(=O)Nc3ccnc(C(F)(F)F)c3)n12` displayed an EC50 of 10 µM.
In turn, `Fc1ccc(C2(C(Oc3cncc4nnc(-c5ccc(OC(F)F)cc5)n34)C(F)(F)F)CC2)cc1F` (configuration not stated) came in with an EC50 of 10 µM.
As for `Cn1cc2ccc(Oc3cncc4nnc(-c5ccc(OC(F)F)cc5)n34)cc2n1`, the midpoint of the response, the EC50, lay at 6.2 µM.
In the case of `OC(COc1cncc2nnc(-c3ccc(OC(F)F)cc3)n12)c1ccc(F)c(F)c1` (configuration not stated), the EC50 came to 0.124 µM.
Consider `FC(F)Oc1ccc(-c2nnc3cncc(OCc4cccc5ccccc45)n23)cc1`, for which the response was half-maximal at 1.67 µM (EC50).
The figure for `Fc1ccc([C@@H]2[C@@H](Oc3cncc4nnc(-c5ccc(OC(F)F)cc5)n34)CN2C2CC2)cc1F` is 0.731 µM; for `CC(O)(COc1cncc2nnc(-c3ccc(OC(F)F)cc3)n12)c1ccc(F)c(F)c1` (configuration not stated) it is 0.101 µM.
Turning to `FC(F)Oc1ccc(-c2nnc3cncc(Oc4cccc(Oc5ccccn5)c4)n23)cc1`, the EC50 was 6.04 µM.
The figure for `FC(F)Oc1ccc(-c2nnc3cncc(OCC4CCc5cc(Cl)ccc54)n23)cc1` (configuration not stated) is 1.46 µM; for `CC(F)(COc1cncc2nnc(-c3ccc(OC(F)F)cc3)n12)c1ccc(F)c(F)c1` (configuration not stated) it is 0.123 µM.
`FC(F)Oc1ccc(-c2nnc3cncc(Oc4ccc5nc(C(F)(F)F)ncc5c4)n23)cc1` yielded an EC50 of 2.02 µM.
Consider `Fc1ccc(C(F)COc2cncc3nnc(-c4ccc(OC(F)F)cc4)n23)cc1F` (configuration not stated), for which the EC50 worked out at 0.0654 µM.
As to `FC(F)Oc1ccc(-c2nnc3cncc(Oc4ccc5ccsc5c4)n23)cc1`, the EC50 worked out at 0.576 µM.
`Fc1ccc(CCOc2ccc3nnc(-c4ccc(OC(F)F)cc4)n3n2)cc1F` came in with an EC50 of 6.78 µM.
Regarding `Fc1cc2ccc(Oc3cncc4nnc(-c5ccc(OC(F)F)cc5)n34)cc2cc1F`, a half-maximal effect (EC50) was put at 0.839 µM.
Take `Fc1cc(F)c2ccc(Oc3cncc4nnc(-c5ccc(OC(F)F)cc5)n34)cc2c1`: a half-maximal effect (EC50) was put at 0.173 µM.
For `Fc1ccc(CCNc2ccc3nnc(-c4ccc(OC(F)F)cc4)n3n2)cc1`, the EC50 stood at 0.51 µM.
`O=C(Cc1cccc(Cl)c1)Nc1cn2c(-c3ccc(OC(F)F)cc3)nnc2cn1` came in with an EC50 of 10 µM.
`N#Cc1ccc(-c2nnc3ccc(NCCc4cccnc4)nn23)cc1` gave a 50% effective concentration (EC50) of 10 µM.
On to `Cn1ccc2cc(Oc3cncc4nnc(-c5ccc(OC(F)F)cc5)n34)ccc21`, for which the EC50 is 1.98 µM.
For the compound `O=C1[C@@H](Oc2cn3c(-c4ccc(OC(F)F)cc4)nnc3cn2)[C@@H](c2ccc(F)c(F)c2)N1C1CC1`, a half-maximal effect (EC50) was put at 10 µM.
On to `FC(F)Oc1ccc(-c2nnc3cncc(Oc4ccc5ccc(C(F)(F)F)nc5c4)n23)cc1`, for which the EC50 worked out at 1.63 µM.
Take `Cc1noc2cc(Oc3cncc4nnc(-c5ccc(OC(F)F)cc5)n34)ccc12`: a half-maximal effect (EC50) was put at 1.93 µM.
As to `CC1=CC(C)(C)Oc2cc(Oc3cncc4nnc(-c5ccc(OC(F)F)cc5)n34)ccc21`, a half-maximal response (EC50) required 1.82 µM.
In turn, `Cn1ncc2ccc(Oc3cncc4nnc(-c5ccc(OC(F)F)cc5)n34)cc21` yielded an EC50 of 10 µM.
